# Experimental data as given in US6908935B2, “Calcium receptor modulating agents” (Amgen Inc., priority 2002, dated 2005).
# Biological target: T1, human parathyroid cell Ca^2+ receptor (hPCaR) (Homo sapiens, UniProt P41180)
# T1 construct: expressed in transfected cells
# T1 sequence (P41180 20-1078): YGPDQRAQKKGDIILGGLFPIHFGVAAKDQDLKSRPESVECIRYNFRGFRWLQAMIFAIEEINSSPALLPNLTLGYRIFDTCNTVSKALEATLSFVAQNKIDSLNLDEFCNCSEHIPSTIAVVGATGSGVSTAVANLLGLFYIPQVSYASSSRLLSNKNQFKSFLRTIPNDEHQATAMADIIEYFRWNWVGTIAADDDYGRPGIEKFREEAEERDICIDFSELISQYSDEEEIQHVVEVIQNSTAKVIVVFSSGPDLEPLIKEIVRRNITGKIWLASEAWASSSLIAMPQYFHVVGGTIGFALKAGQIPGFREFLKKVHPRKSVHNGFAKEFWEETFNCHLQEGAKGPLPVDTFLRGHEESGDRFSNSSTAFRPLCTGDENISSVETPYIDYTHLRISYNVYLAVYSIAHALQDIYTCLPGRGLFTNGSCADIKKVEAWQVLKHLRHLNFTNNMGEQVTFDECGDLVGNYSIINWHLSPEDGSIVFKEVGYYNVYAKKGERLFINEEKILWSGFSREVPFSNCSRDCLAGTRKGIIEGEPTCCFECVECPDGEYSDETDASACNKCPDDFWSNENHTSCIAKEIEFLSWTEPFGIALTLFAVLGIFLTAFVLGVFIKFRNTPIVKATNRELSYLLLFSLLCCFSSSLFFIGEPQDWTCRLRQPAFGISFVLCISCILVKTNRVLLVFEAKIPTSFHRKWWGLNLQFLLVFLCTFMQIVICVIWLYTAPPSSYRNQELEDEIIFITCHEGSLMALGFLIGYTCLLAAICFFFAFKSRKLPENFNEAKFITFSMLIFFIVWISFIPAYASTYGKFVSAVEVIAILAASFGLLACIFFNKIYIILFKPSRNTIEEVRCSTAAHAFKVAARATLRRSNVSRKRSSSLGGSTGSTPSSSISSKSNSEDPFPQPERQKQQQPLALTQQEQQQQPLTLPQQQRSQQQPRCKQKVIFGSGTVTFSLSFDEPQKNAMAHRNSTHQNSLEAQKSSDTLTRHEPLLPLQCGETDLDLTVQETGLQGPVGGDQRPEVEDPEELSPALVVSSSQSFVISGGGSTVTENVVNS
# Assay: [Ca2+]i measurement with fluo-3 in HEK 293 4.0-7 cells stably transfected with hPCaR
# Format: cell-based
# Conditions: fluo-3 fluorescence (485/530 nm), effect on [Ca^2+]i
# Method in brief: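 HEK 293 cells stably expressing human parathyroid Ca2+ receptor (clone 4.0-7), loaded with 2 μM fluo-3 AM for 30 min at 37 °C in parathyroid cell buffer (pH 7.45) with 1 mM CaCl2 and 0.5% BSA. After compound addition, intracellular Ca2+ followed by fluorescence at 485 nm excitation/530 nm emission.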
row,EC50 [µM],Structure (SMILES)
1,≤ 10,"C[C@@H](NCc1ccc(Cl)c(-c2cccnc2)c1)c1cccc2ccccc12 [Example 435, (1R)-N-((4-chloro-3-(3-pyridinyl)phenyl)methyl)-1-(1-naphthalenyl)ethanamine]"
2,≤ 10,"COc1ccc(-c2cc(CN[C@H](C)c3ccccc3)ccc2O)cc1 [Example 391, 4′-(methyloxy)-5-((((1R)-1-phenylethyl)amino)methyl)-1,1′-biphenyl-2-ol]"
3,≤ 10,"COc1ccc(CN[C@H](C)c2ccccc2)cc1-c1ccc(C(N)=O)cc1 [2′-(methyloxy)-5′-((((1R)-1-phenylethyl)amino)methyl)-1,1′-biphenyl-4-carboxamide]"
4,≤ 10,COc1ccc(CN[C@H](C)c2ccc(C)cc2)cc1-c1cccnc1 [(1R)-N-((4-(methyloxy)-3-(3-pyridinyl)phenyl)methyl)-1-(4-methylphenyl)ethanamine]
5,≤ 10,"COc1cccc([C@@H](C)NCc2ccc(OC)c(-c3nc4ccccc4s3)c2)c1 [(1R)-N-((3-(1,3-benzothiazol-2-yl)-4-(methyloxy)phenyl)methyl)-1-(3-(methyloxy)phenyl)ethanamine]"
6,≤ 10,COc1ccc(CN[C@H](C)c2cccc3ccccc23)cc1-c1ncccn1 [(1R)-N-((4-(methyloxy)-3-(2-pyrimidinyl)phenyl)methyl)-1-(1-naphthalenyl)ethanamine]
7,≤ 10,C[C@@H](NCc1cccc(-c2ccccn2)c1)c1ccc2ccccc2c1 [(1R)-1-(2-naphthalenyl)-N-((3-(2-pyridinyl)phenyl)methyl)ethanamine]
8,≤ 10,"COc1ccc(CN[C@H](C)c2ccccc2)cc1-c1ccc(C(=O)N(C)C)cc1 [N,N-dimethyl-2′-(methyloxy)-5′-((((1R)-1-phenylethyl)amino)methyl)-1,1′-biphenyl-4-carboxamide]"
9,≤ 10,COc1ccc(CN[C@H](C)c2ccccc2)cc1-c1ccc(N)nc1 [5-(2-(methyloxy)-5-((((1R)-1-phenylethyl)amino)methyl)phenyl)-2-pyridinamine]
10,≤ 10,"Cc1ccc([C@@H](C)NCc2cccc(-c3ccccc3F)c2)cc1 [(1R)-N-((2′-fluoro-1,1′-biphenyl-3-yl)methyl)-1-(4-methylphenyl)ethanamine]"
11,≤ 10,"COc1ccc(CN[C@H](C)c2ccc(C)cc2)cc1-c1ccccc1 [(1R)-N-((6-(methyloxy)-1,1′-biphenyl-3-yl)methyl)-1-(4-methylphenyl)ethanamine]"
12,≤ 10,"COc1ccc(-c2cccc(CN[C@H](C)c3cccc(OC)c3)c2)cc1 [(1R)-N-((4′-(methyloxy)-1,1′-biphenyl-3-yl)methyl)-1-(3-(methyloxy)phenyl)ethanamine]"
13,≤ 10,COc1ccc(CN[C@H](C)c2ccccc2)cc1-c1ccoc1 [(1R)-N-((3-(3-furanyl)-4-(methyloxy)phenyl)methyl)-1-phenylethanamine]
14,≤ 10,"COc1cccc([C@@H](C)NCc2cccc(-c3nc(C)no3)c2)c1 [(1R)-N-((3-(3-methyl-1,2,4-oxadiazol-5-yl)phenyl)methyl)-1-(3-(methyloxy)phenyl)ethanamine]"
15,≤ 10,"COc1ccc(CN[C@H](C)c2ccccc2)cc1-c1cccc(C(N)=O)c1 [2′-(methyloxy)-5′-((((1R)-1-phenylethyl)amino)methyl)-1,1′-biphenyl-3-carboxamide]"
16,≤ 10,"COc1ccc(CN[C@H](C)c2cccc3ccccc23)cc1-c1csc(C)n1 [(1R)-N-((4-(methyloxy)-3-(2-methyl-1,3-thiazol-4-yl)phenyl)methyl)-1-(1-naphthalenyl)ethanamine]"
17,≤ 10,COc1cccc([C@@H](C)NCc2ccc(OC)c(-c3cncnc3)c2)c1 [(1R)-1-(3-(methyloxy)phenyl)-N-((4-(methyloxy)-3-(5-pyrimidinyl)phenyl)methyl)ethanamine]
18,≤ 10,"Cc1noc(-c2cccc(CN[C@H](C)c3ccccc3)c2)n1 [Example 453, (1R)-N-((3-(3-methyl-1,2,4-oxadiazol-5-yl)phenyl)methyl)-1-phenylethanamine]"

# Second part, the molecule before the results:
row,Structure (SMILES),EC50 [µM]
1,COc1cccc([C@@H](C)NCc2ccc(OC)c(-c3ccc4[nH]ccc4c3)c2)c1 [(1R)-N-((3-(1H-indol-5-yl)-4-(methyloxy)phenyl)methyl)-1-(3-(methyloxy)phenyl)ethanamine],≤ 10
2,"COc1ccc(CN[C@H](C)c2ccc(C)cc2)cc1-c1nccs1 [(1R)-N-((4-(methyloxy)-3-(1,3-thiazol-2-yl)phenyl)methyl)-1-(4-methylphenyl)ethanamine]",≤ 10
3,"COc1ccc(CN[C@H](C)c2cccc3ccccc23)cc1-c1ccc2c(c1)OC(F)(F)O2 [(1R)-N-((3-(2,2-difluoro-1,3-benzodioxol-5-yl)-4-(methyloxy)phenyl)methyl)-1-(1-naphthalenyl)ethanamine]",≤ 10
4,"COc1cccc([C@@H](C)NCc2ccc(OC)c(-c3ccc(Cl)cc3)c2)c1 [(1R)-N-((4′-chloro-6-(methyloxy)-1,1′-biphenyl-3-yl)methyl)-1-(3-(methyloxy)phenyl)ethanamine]",≤ 10
5,CCOC(=O)N1CCC(c2cc(CN[C@H](C)c3cccc4ccccc34)ccc2OC)CC1 [ethyl 4-(2-(methyloxy)-5-((((1R)-1-(1-naphthalenyl)ethyl)amino)methyl)phenyl)-1-piperidinecarboxylate],≤ 10
6,"COc1ccc(CN[C@H](C)c2cccc3ccccc23)cc1-c1cccc(OC(F)(F)F)c1 [(1R)-N-((6-(methyloxy)-3′-((trifluoromethyl)oxy)-1,1′-biphenyl-3-yl)methyl)-1-(1-naphthalenyl)ethanamine]",≤ 10
7,COc1ccc(CN[C@H](C)c2cccc3ccccc23)cc1-c1ccc(C)nc1 [(1R)-N-((4-(methyloxy)-3-(6-methyl-3-pyridinyl)phenyl)methyl)-1-(1-naphthalenyl)ethanamine],≤ 10
8,"COc1cccc([C@@H](C)NCc2ccc(OC)c(-c3nnc(C(F)(F)F)o3)c2)c1 [(1R)-1-(3-(methyloxy)phenyl)-N-((4-(methyloxy)-3-(5-(trifluoromethyl)-1,3,4oxadiazol-2-yl)phenyl)methyl)ethanamine]",≤ 10
9,C[C@@H](NCc1ccc(OC(F)F)c(-c2cccnc2)c1)c1cccc2ccccc12 [(1R)-N-((4-((difluoromethyl)oxy)-3-(3-pyridinyl)phenyl)methyl)-1-(1-naphthalenyl)ethanamine],≤ 10
10,"C[C@@H](NCc1ccc(OCC(F)(F)F)c(-c2ccc(C(F)(F)F)cc2)c1)c1ccccc1 [(1R)-1-phenyl-N-((6-((2,2,2-trifluoroethyl)oxy)-4′-(trifluoromethyl)-1,1′-biphenyl-3-yl)methyl)ethanamine]",≤ 10
11,COc1cccc([C@@H](C)NCc2ccc(OC)c(-c3cccs3)c2)c1 [(1R)-1-(3-(methyloxy)phenyl)-N-((4-(methyloxy)-3-(2-thienyl)phenyl)methyl)ethanamine],≤ 10
12,"COc1ccc(CNC(C)c2cccc(Cl)c2Cl)cc1-c1ccc(C(F)(F)F)cc1 (centres unmarked) [1-(2,3-dichlorophenyl)-N-((6-(methyloxy)-4′-(trifluoromethyl)-1,1′-biphenyl-3-yl)methyl)ethanamine]",≤ 10
13,"COc1cccc([C@@H](C)NCc2ccc(C(F)(F)F)c(-c3ccc(C(F)(F)F)cc3)c2)c1 [(1R)-N-((4′,6-bis(trifluoromethyl)-1,1′-biphenyl-3-yl)methyl)-1-(3-(methyloxy)phenyl)ethanamine]",≤ 10
14,"COc1ccc(CN[C@H](C)c2cccc3ccccc23)cc1-c1ccc(Cl)cc1 [(1R)-N-((4′-chloro-6-(methyloxy)-1,1′-biphenyl-3-yl)methyl)-1-(1-naphthalenyl)ethanamine]",≤ 10
15,CCOC(=O)N1CCC(c2cc(CN[C@H](C)c3ccccc3)ccc2OC)CC1 [ethyl 4-(2-(methyloxy)-5-((((1R)-1-phenylethyl)amino)methyl)phenyl)-1-piperidinecarboxylate],≤ 10
16,"COc1ccc(CN[C@H](C)c2cccc3ccccc23)cc1-c1nccs1 [(1R)-N-((4-(methyloxy)-3-(1,3-thiazol-2-yl)phenyl)methyl)-1-(1-naphthalenyl)ethanamine]",≤ 10
17,"COc1ccc(CN[C@H](C)c2cccc3ccccc23)cc1-c1cccc(C(N)=O)c1 [2′-(methyloxy)-5′-((((1R)-1-(1-naphthalenyl)ethyl)amino)methyl)-1,1′-biphenyl-3-carboxamide]",≤ 10
